Reference: PMC10223284, “Category-Based Toxicokinetic Evaluations of Data-Poor Per- and Polyfluoroalkyl Substances (PFAS) using Gas Chromatography Coupled with Mass Spectrometry” (Toxics, 2023)
Several values for one entry are separate records, joined by “and”; a condition that tells them apart may be missing. Equal entries are not always repeated.

Columns and labels:
[1] = Abiotic loss in negative controls of the hepatocyte clearance assay (cell-free media, metabolically inactivated hepatocytes); type: in vitro ADME; details: flag for stability failure in hepatocyte clearance assay controls (1 or Fst = fail, 0 = pass)
Experimental: The hepatic metabolic stability assay measures the loss of a parent compound over time in a substrate-depletion approach. Briefly, hepatocyte suspensions, after a viability assessment, were diluted in complete William’s medium E (containing dexamethasone and cell maintenance cocktail B) prior to addition to 96-well polypropylene plates containing an equal volume of media spiked with the test compound (1 μM assay concentration; assay cell density = 50,000 cells/100 μL) and maintained at 37 °C with shaking. At each time point, relevant plates were crashed with an equal volume of ice-cold acetonitrile, centrifuged, and supernatant transferred to a new plate prior to storage at <−70 °C until quantitative analysis. Controls, run in parallel, included cell-free (i.e., media only) and metabolically inactivated hepatocytes to evaluate abiotic chemical stability in the aqueous media matrix with and without cellular protein. In preliminary runs, these controls were run at T0 and T240 only. If significant instability was noted, the hepatocyte clearance assay was rerun, including cell-free samples at each time point and metabolically inactivated hepatocytes at selected time points.
Negative controls, including media only and metabolically inactivated hepatocyte controls, were included to monitor abiotic loss (i.e., background clearance) during the assay. Where significant compound loss occurred using the analysis described above, background clearance rates were calculated and used to background-adjust hepatic metabolic clearance rates. Where chemicals were cleared prior to the end of the analysis, at 240 min (T240), the corresponding negative control timepoint was used for background subtraction. Any chemicals displaying a 50% or more abiotic loss at T120 were deemed unstable and were excluded from further analyses.

human plasma [2] = assay: Ultracentrifugation (UC) plasma protein binding assay, fraction unbound in plasma (fup); details: for Mean fu: fraction unbound in human plasma, ultracentrifugation, some values based on eLOQ; for Fup.Med: median fraction unbound in plasma; for Fup.Med / Fup.point: UC assay Level4; for Fup.point: point estimate of fraction unbound in plasma; for Fraction Unbound (fu), replicates A, B, C: single replicate of one UC run (aqueous fraction / Time 5 hr); for Aqueous Fraction / Aqueous Fraction, Run-specific Avg: amount measured in aqueous fraction after ultracentrifugation, unit not given; for Aqueous Fraction: replicates A, B, C; for Aqueous Fraction, Run-specific Avg: run average
human plasma [3] = assay: Chemical stability in plasma over the UC assay time course (T5hr/T1hr); details: for PPB_Stab_Fail: flag for stability failure in the plasma protein binding assay (1 = fail, 0 = pass); for Fstable.Med: median fraction stable in plasma, UC assay Level4; for Stability (T5hr/ T1hr), replicates A, B, C: single replicate of one UC run; for % remaining_PPB: chemical remaining in plasma over the PPB assay time course, NS = no significant loss; for Time 1 hr / Time 1 hr, Run-specific Avg: amount measured in plasma sample at 1 hr; for Time 1 hr / Time 5 hr: replicates A, B, C; for Time 1 hr / Time 1 hr, Run-specific Avg / Time 5 hr / Time 5 hr, Run-specific Avg: unit not given; for Time 1 hr, Run-specific Avg / Time 5 hr, Run-specific Avg: run average; for Time 5 hr / Time 5 hr, Run-specific Avg: amount measured in plasma sample at 5 hr
[4] = mean fraction unbound over all replicates and runs, UC assay, human plasma
[5] = average of one UC run (run date in line above)
[6] = mean T5hr/T1hr ratio over all replicates and runs, plasma
[7] = mean T5hr/T1hr ratio in plasma over all replicates/runs

Row | SMILES | Hep_Stab_Fail [1] | Mean fu (human plasma [2]) | Fup.Med (human plasma [2]) | Fup.point (human plasma [2]) | PPB_Stab_Fail (human plasma [3]) | Fstable.Med (human plasma [3]) | % remaining_PPB (human plasma [3]) [%] | further results
1 | OCC(F)(F)C(F)(F)C(F)(F)C(F)(F)C(F)(F)C(F)F | 1 | 0.0537 | 0.0526 | 0.0549 | 0 | 0.222 |  | Mean Fu (human plasma [2]; [4]): 0.054; Fraction Unbound (fu), replicates A, B, C (human plasma [2]): 0.052 and 0.046 and 0.064; Stability (T5hr/ T1hr), Run-specific Avg (human plasma [3]; [5]): 0.870; Mean Stability (human plasma [3]; [6]): 0.875; Stability (T5hr/ T1hr), replicates A, B, C (human plasma [3]): 0.819 and 1.002 and 0.803
2 | FC(F)(F)C(F)(F)C(F)(F)C(F)(F)C(F)(F)C(F)(F)C(F)(F)CCI [1-Iodo-1H,1H,2H,2H-perfluorononane] | Fst | 0.1123 | 0.108 | 0.112 | 0 | 0.358 | 51.7 | 
3 | FC(F)(F)C(F)(F)C(F)(F)C(F)(F)C(F)(F)C(F)(F)C(F)(F)I [1-Iodopentadecafluoroheptane] | 1 |  | 0.907 |  | 1 | 0.202 | 16 | 
4 | FC(F)(F)C(F)(F)C(F)(F)C(F)(F)CCI [1H,1H,2H,2H-Perfluorohexyl iodide] | 1 | 0.0980 | 0.0824 | 0.0905 | 0 | 0.99 |  | Aqueous Fraction (human plasma [2]): 429.404 and 197.254 and 248.159; Aqueous Fraction, Run-specific Avg (human plasma [2]): 291.61; Fraction Unbound (fu), Run-specific Avg (human plasma [2]; [5]): 0.10; Fraction Unbound (fu), replicates A, B, C (human plasma [2]): 0.08012 and 0.1098 and 0.1042; Time 1 hr (human plasma [3]): 4814.29 and 5234.67 and 5102.52; Time 1 hr, Run-specific Avg (human plasma [3]): 5050.49; Time 5 hr (human plasma [3]): 2541.5 and 2572.68 and 2719.11; Time 5 hr, Run-specific Avg (human plasma [3]): 2557.09; Stability (T5hr/ T1hr), Run-specific Avg (human plasma [3]; average of one UC run): 0.506; Stability (T5hr/ T1hr), Run-specific Avg (human plasma [3]; [5]): 0.871; Mean Stability (human plasma [3]; [7]): 0.517; Mean Stability (human plasma [3]; [6]): 0.928; Stability (T5hr/ T1hr), replicates A, B, C (human plasma [3]): 1.126 and 0.894 and 0.765
5 | C=CC(=O)OCC(F)(F)C(F)(F)C(F)(F)COC(=O)C=C [1H,1H,5H,5H-Perfluoro-1,5-pentanediol diacrylate] | 1 |  | 7.62E-09 | 0.177 | 1 | 0.00466 | 0 | 
6 | OCC(F)(F)C(F)(F)C(F)(F)C(F)F [1H,1H,5H-Perfluoropentanol] | 1 | 0.3616 | 0.791 | 0.355 | 0 | 1 |  | Fraction Unbound (fu), Run-specific Avg (human plasma [2]; [5]): 0.36; Mean Fu (human plasma [2]; [4]): 0.362; Fraction Unbound (fu), replicates A, B, C (human plasma [2]): 0.445 and 0.315 and 0.324; Stability (T5hr/ T1hr), Run-specific Avg (human plasma [3]; [5]): 0.858; Mean Stability (human plasma [3]; [6]): 0.855; Stability (T5hr/ T1hr), replicates A, B, C (human plasma [3]): 0.775 and 0.902 and 0.887
7 | C=CC(=O)OCC(F)(F)C(F)(F)C(F)(F)C(F)(F)C(F)(F)C(F)(F)C(F)(F)C(F)F [1H,1H,9H-Perfluorononyl acrylate] | 1 |  | 2.02E-08 | 0.315 | 1 | 0.000116 | 0 | 
8 | FC(F)(F)C(F)(F)C(F)(F)CC1CO1 (stereo not drawn) [1H,1H-Heptafluorobutyl epoxide] | 1 |  |  |  | 1 |  | 0 | 
9 | C=CC(=O)OCC(F)(F)C(F)(F)C(F)(F)C(F)(F)C(F)(F)C(F)(F)C(F)(F)F [1H,1H-Perfluorooctyl acrylate] | 1 |  |  |  | 1 |  | 6 | 
10 | NCC(F)(F)C(F)(F)C(F)(F)C(F)(F)C(F)(F)C(F)(F)C(F)(F)F [1H,1H-Perfluorooctylamine] | Fst | 0.105 | 0.605 | 0.345 | 0 | 0.0977 | 58 | Aqueous Fraction (human plasma [2]): 245.64 and 173.583 and 303.476; Aqueous Fraction, Run-specific Avg (human plasma [2]): 240.90; Fraction Unbound (fu), Run-specific Avg (human plasma [2]; average of one UC run): 0.08; Mean Fu (human plasma [2]; mean fraction unbound in human plasma over all UC replicates/runs): 0.081; Time 1 hr (human plasma [3]): 5598.62 and 5535.59 and 4647.69; Time 1 hr, Run-specific Avg (human plasma [3]): 5260.63; Time 5 hr (human plasma [3]): 3087.52 and 3094.29 and 2839.44; Time 5 hr, Run-specific Avg (human plasma [3]): 3090.91; Stability (T5hr/ T1hr), Run-specific Avg (human plasma [3]; average of one UC run): 0.588; Mean Stability (human plasma [3]; [7]): 0.577
11 | C=CC(=O)OCCC(F)(F)C(F)(F)C(F)(F)C(F)(F)F [2-(Perfluorobutyl)ethyl acrylate] | 1 |  | 2.26E-06 | 0.078 | 1 | 0.000485 | 0 | 
12 | OCCCCC(F)(F)C(F)(F)C(F)(F)C(F)(F)F [4:4 Fluorotelomer alcohol] | 1 | 0.0640 | 0.0608 | 0.0704 | 0 | 0.181 | 100 | Aqueous Fraction (human plasma [2]): 460.145 and 470.255 and 706.065; Aqueous Fraction, Run-specific Avg (human plasma [2]): 545.49; Fraction Unbound (fu), Run-specific Avg (human plasma [2]; average of one UC run): 0.064; Time 1 hr (human plasma [3]): 11379.4 and 9453.92 and 9594.35; Time 1 hr, Run-specific Avg (human plasma [3]): 10142.56; Time 5 hr (human plasma [3]): 9012.64 and 8012.91 and 8571.88; Time 5 hr, Run-specific Avg (human plasma [3]): 8512.77; Stability (T5hr/ T1hr), Run-specific Avg (human plasma [3]; average of one UC run): 0.839; Mean Stability (human plasma [3]; [7]): 0.850
13 | OCC(F)(F)C(F)(F)C(F)(F)C(F)(F)C(F)(F)C(F)(F)F [6:1 Fluorotelomer alcohol] | 1 |  | 0.0187 | 0.0386 | 0 | 0.204 |  | Aqueous Fraction (human plasma [2]): 212.981 and 210.941 and 147.734; Aqueous Fraction, Run-specific Avg (human plasma [2]): 190.55; Fraction Unbound (fu), Run-specific Avg (human plasma [2]; average of one UC run): 0.0231; Time 1 hr (human plasma [3]): 10923.7 and 9182.55 and 11162.4; Time 1 hr, Run-specific Avg (human plasma [3]): 10422.90; Time 5 hr (human plasma [3]): 5789.66 and 11336.8 and 10690.6; Time 5 hr, Run-specific Avg (human plasma [3]): 8563.21; Stability (T5hr/ T1hr), Run-specific Avg (human plasma [3]; average of one UC run): 0.822; Mean Stability (human plasma [3]; [7]): 0.907
14 | OCCC(F)(F)C(F)(F)C(F)(F)C(F)(F)C(F)(F)C(F)(F)F [6:2 Fluorotelomer alcohol] | 1 |  | 0.232 | 0.152 | 0 | 0.205 | 100 | Aqueous Fraction (human plasma [2]): 219.897 and 3328.34 and 176.612; Aqueous Fraction, Run-specific Avg (human plasma [2]): 1241.62; Fraction Unbound (fu), Run-specific Avg (human plasma [2]; average of one UC run): 0.0229; Time 1 hr (human plasma [3]): 10242.5 and 11181.9 and 10094.7; Time 1 hr, Run-specific Avg (human plasma [3]): 10506.38; Time 5 hr (human plasma [3]): 8145.88 and 10628.7 and 9411.26; Time 5 hr, Run-specific Avg (human plasma [3]): 9387.28; Stability (T5hr/ T1hr), Run-specific Avg (human plasma [3]; average of one UC run): 0.893; Mean Stability (human plasma [3]; [7]): 0.895
15 | OCCCC(F)(F)C(F)(F)C(F)(F)C(F)(F)C(F)(F)C(F)(F)C(F)(F)F [7:3 Fluorotelomer alcohol] | 1 | 0.0230 |  |  | 0 |  |  | 
16 | CC(C)(C)C(=O)CC(=O)C(F)(F)C(F)(F)C(F)(F)F [(Heptafluorobutanoyl)pivaloylmethane] | 1 |  |  |  |  |  |  | 
17 | CO[Si](C)(CCC(F)(F)C(F)(F)C(F)(F)C(F)(F)C(F)(F)C(F)(F)F)OC [DTXSID40235137] | 1 |  |  |  | 1 |  | 0 | 
18 | CC(O)C(F)(F)C(F)(F)F (stereo not drawn) [DTXSID70880134] | 1 |  |  |  | 1 |  | 0 | 
19 | C=CC(=O)OCC(F)(F)C(F)(F)C(F)(F)C(F)(F)COC(=O)C=C [DTXSID80379721] | 1 |  |  |  | 1 |  | 0 | 
20 | OCC(F)(F)OC(F)(F)C(F)(F)OC(F)(F)C(F)(F)OC(F)(F)F [Fluorinated triethylene glycol monomethyl ether] | 1 |  |  |  | 1 |  | 0 | 
